Assay results from patent US9573899B2, “USP7 inhibitor compounds and methods of use” (Genentech, Inc., priority 2015, dated 2017).

Molecular target: T1, USP47 (Homo sapiens, UniProt Q96K76)
T1 sequence (Q96K76 1-1375): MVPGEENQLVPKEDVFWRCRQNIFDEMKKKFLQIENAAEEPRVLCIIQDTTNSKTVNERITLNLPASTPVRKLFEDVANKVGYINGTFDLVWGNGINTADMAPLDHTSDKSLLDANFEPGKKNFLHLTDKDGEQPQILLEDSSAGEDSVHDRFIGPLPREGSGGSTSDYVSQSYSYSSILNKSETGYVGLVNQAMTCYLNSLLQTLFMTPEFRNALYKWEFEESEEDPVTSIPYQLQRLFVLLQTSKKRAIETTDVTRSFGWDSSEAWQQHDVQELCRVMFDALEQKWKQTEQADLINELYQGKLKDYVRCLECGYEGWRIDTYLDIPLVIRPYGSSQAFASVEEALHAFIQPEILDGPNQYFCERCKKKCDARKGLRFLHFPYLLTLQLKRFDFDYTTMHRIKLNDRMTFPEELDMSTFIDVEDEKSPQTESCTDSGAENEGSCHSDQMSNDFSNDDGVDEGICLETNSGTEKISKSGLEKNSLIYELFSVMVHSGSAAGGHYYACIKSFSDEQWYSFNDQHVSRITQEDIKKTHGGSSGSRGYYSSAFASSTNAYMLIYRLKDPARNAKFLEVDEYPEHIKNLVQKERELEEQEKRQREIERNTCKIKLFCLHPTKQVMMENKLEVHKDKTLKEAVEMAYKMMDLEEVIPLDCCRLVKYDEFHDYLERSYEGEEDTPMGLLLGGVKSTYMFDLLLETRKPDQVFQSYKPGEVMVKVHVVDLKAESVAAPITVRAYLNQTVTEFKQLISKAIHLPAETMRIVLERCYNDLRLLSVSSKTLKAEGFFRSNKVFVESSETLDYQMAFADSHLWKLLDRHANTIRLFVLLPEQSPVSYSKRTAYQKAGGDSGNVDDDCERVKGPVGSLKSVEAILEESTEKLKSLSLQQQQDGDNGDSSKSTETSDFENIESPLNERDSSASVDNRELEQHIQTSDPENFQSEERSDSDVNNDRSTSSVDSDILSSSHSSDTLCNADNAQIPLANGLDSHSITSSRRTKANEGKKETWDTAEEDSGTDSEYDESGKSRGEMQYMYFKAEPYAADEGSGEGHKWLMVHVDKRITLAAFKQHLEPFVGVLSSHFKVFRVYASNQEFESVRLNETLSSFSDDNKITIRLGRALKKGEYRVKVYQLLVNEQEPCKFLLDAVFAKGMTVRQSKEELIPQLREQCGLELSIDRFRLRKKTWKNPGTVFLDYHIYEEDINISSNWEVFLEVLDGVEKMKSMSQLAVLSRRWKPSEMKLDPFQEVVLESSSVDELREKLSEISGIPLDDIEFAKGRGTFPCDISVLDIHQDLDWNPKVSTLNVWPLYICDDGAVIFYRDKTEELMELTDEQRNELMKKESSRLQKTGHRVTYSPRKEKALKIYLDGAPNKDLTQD
Assay: Ub-Rho110 DUB assay, Table 2, USP47
Format: biochemical

IC50: > 200 µM
Compound: CCc1c(-c2ccc3[nH]ncc3c2)cnc(N)c1-c1ccc(O)cc1 [Compound 88, 4-[2-amino-4-ethyl-5-(1H-indazol-5-yl)-3-pyridyl]phenol]
